Results on 24 compounds are retold here after patent publication US5594004A, “Compound with platelet aggregation inhibitor activity” (Meiji Seika Kabushiki Kaisha, priority 1993, dated 1997).

Counter-ions that a name gives are not always drawn. A value given as a limit tells only on which side of the number the result lay.

T1 sequence (P08514 32-887 limits assumed): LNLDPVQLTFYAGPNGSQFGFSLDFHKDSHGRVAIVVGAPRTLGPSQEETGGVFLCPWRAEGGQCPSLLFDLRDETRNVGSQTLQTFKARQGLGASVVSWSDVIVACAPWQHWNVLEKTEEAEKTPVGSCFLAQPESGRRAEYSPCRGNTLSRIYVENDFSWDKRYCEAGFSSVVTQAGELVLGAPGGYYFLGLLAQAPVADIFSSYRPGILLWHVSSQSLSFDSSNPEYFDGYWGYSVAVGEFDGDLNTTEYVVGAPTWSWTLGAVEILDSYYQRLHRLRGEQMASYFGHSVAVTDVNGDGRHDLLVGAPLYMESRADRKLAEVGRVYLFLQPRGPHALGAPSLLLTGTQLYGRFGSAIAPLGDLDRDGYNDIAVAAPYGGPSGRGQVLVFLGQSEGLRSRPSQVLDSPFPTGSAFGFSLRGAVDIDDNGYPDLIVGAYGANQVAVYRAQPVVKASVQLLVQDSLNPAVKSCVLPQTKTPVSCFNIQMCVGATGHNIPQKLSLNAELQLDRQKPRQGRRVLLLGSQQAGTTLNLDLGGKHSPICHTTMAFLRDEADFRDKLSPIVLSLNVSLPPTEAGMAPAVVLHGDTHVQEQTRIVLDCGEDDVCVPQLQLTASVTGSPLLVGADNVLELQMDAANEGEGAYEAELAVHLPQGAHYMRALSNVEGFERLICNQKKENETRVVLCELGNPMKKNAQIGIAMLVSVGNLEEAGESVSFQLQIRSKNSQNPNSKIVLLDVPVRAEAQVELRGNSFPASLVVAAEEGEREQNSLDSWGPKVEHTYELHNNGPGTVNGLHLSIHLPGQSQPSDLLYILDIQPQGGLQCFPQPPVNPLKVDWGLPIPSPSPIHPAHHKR
T1 sequence (P08514 891-1039 limits assumed): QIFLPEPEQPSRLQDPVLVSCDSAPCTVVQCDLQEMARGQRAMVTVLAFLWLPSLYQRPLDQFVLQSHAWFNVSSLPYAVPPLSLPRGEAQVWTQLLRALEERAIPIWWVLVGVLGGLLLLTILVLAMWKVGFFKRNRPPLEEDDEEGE
T1 sequence (P05106 27-788): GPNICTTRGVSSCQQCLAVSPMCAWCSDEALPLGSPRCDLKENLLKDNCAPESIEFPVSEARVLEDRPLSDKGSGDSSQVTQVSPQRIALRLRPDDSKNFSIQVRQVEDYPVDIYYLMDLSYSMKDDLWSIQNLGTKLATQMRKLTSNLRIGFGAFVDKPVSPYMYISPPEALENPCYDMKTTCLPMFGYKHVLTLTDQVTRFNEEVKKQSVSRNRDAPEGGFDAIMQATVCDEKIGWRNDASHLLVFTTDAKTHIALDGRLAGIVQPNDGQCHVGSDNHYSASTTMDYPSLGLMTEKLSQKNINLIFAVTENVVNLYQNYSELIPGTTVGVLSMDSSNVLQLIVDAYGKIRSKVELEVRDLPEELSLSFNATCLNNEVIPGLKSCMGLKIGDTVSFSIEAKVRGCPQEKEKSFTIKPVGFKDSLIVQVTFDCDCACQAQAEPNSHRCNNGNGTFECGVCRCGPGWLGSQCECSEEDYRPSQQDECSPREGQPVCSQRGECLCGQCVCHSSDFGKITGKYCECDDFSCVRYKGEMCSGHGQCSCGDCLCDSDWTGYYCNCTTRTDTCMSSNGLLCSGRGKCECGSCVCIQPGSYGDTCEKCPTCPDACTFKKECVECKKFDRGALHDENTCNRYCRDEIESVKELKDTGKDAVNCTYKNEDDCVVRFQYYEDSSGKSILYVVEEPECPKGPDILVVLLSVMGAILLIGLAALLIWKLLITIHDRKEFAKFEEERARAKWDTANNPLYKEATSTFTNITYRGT

For the first experiment, the system named is human PRP (platelet rich plasma). Put plainly: Pharmacological test 1: inhibition of ADP-induced platelet aggregation in human PRP. It is filed as cell-based. As to conditions: Homo sapiens, Platelet, platelet aggregation, ADP 5 μM inducer. Here is the method: Pharmacological test 1 Inhibition of platelet aggregation
The effect of the compound according to the present invention on inhibiting the platelet aggregation was examined with human PRP (platelet rich plasma).
Nine volumes of a blood sample was taken out of the vein of a normal human with a syringe in which one volume of a 3.8% sodium citrate solution was charged. The blood sample was centrifuged at 170×g at room temperature for 10 minutes. The supernatant thus obtained was isolated as PRP. The residual blood sample that PRP had been taken out was centrifuged at 2,700×g for 15 minutes. The supernatant was then taken as platelet poor plasma (PPP).
Platelet aggregation test was conducted with an aggligometer (PAM-8C; manufactured by MEBANICKS Co., Ltd.). Compounds to be tested were dissolved in a 50% DMSO saline, a 50% methanol saline or physiological saline. The compound and PRP were preincubated for 2 minutes. The ADP (CHRONO-PAR REAGENTS 384 ADP, CHRONO-LOG Corp.) was used as an inducer in the form of a dilution with saline so that the final concentration is 5 μM.
Anti-platelet aggregation activity was obtained as an inhibition rate to platelet aggregation effect of ADP in the absence of a compound to be tested as follows: [formula] Physiological test 2 Inhibition of fibrinogen bonding to platelet GPIIb/IIIa
Compound `O=C(O)COc1ccc(C(=O)CNC(=O)c2cc3c(s2)CCNC3)c(OCC(=O)O)c1` [Example 25, [[4-[[[(4,5,6,7-tetrahydrothieno[3.2-c]pyridin-2-yl)carbonyl]amino]acetyl]-m-phenylene]dioxy]diacetic acid trifluoroacetate] returned a half-inhibitory concentration (IC50) of 1500 nM.
The same measure, in the same setting: in the case of `COc1cc(C(=O)CNC(=O)c2cc3c(s2)CCNC3)ccc1OCC(=O)O` [Example 26, 4-[[4,5,6,7-tetrahydrothieno[3.2-c]pyridin-2-yl)carbonyl]aminoacetyl]-2-methoxyphenoxyacetic acid trifluoroacetate] it was 1000 nM; in that of `O=C(O)COc1ccc(C(=O)CNC(=O)c2sc3c(c2Cc2ccccc2)CNCC3)cc1OCC(=O)O` [Example 28, [[4-[[[(3-benzyl-4,5,6,7-tetrahydrothieno[3.2-c]pyridin-2-yl)carbonyl]amino]acetyl]-o-phenylene]dioxy]diacetic acid trifluoroacetate], greater than 10000 nM.
`O=C(O)COc1ccc(C(=O)CNC(=O)c2cc3c(s2)CCCNC3)cc1OCC(=O)O` [Example 30, [[4-[[[(5,6,7,8-tetrahydro-4H-thieno[3.2-c]azepin-2-yl)carbonyl]amino]acetyl]-o-phenylene]dioxy]diacetic acid trifluoroacetate]: the IC50 is 1900 nM. That is a single-digit micromolar value.
`O=C(O)COc1ccc(C(=O)CNC(=O)c2cc3c(s2)CCNCC3)cc1OCC(=O)O` [Example 31, [[4-[[[(5,6,7,8-tetrahydro-4H-thieno[2,3-d]azepin-2-yl)carbonyl]amino]acetyl]-o-phenylene]dioxy]diacetic acid trifluoroacetate] came in with an IC50 of 150 nM.
`O=C(O)COc1ccc(C(=O)NCC(=O)c2cc3c(s2)CCNC3)cc1OCC(=O)O` [Example 32, [[4-[N-[(4,5,6,7-tetrahydrothieno[3,2-c]pyridin-2-yl)carbonyl]methyl]carbamoyl]-o-phenylene]dioxy]diacetic acid trifluoroacetate] yielded an IC50 of 480 nM. Compared with the last compound, the IC50 is about 3.2-fold higher.
With `CCOC(=O)COc1ccc(CCNC(=O)c2cc3c(s2)CCNC3)cc1OCC(=O)OCC` [Example 33, Diethyl [[4-[[2-[(4,5,6,7-tetrahydrothieno[3,2-c]pyridin-2-yl)carbonyl]amino]ethyl]-o-phenylene]dioxy]diacetate trifluoroacetate], half-maximal inhibition (IC50) was put at 1700 nM.
The same measure, in the same setting: for `CCOC(=O)COc1ccc(C(=O)CNC(=O)c2cc3c(s2)CCNC3)cc1OCC(=O)OCC` [Example 34, Diethyl [[4-[[[(4,5,6,7-tetrahydrothieno[3,2-c]pyridin2-yl)carbonyl]amino]acetyl]-o-phenylene]dioxy]diacetate trifluoroacetate] the value was 930 nM.
Take `O=C(O)COc1ccc(C(=O)CNC(=O)CCCC2CCNCC2)cc1OCC(=O)O` [Example 36, [[4-[[N-[4-(piperidin-4-yl)butyryl]amino]acetyl]-o-phenylene]dioxy]diaceticacid trifluoroacetate]: it took 9000 nM to reach half-maximal inhibition (IC50).
The compound `CN(CC(=O)c1ccc(OCC(=O)O)c(OCC(=O)O)c1)C(=O)CC1CCNCC1` [Example 37, [[4-[[N-[2-(piperidin-4-yl)acetyl]-N-methylamino]acetyl]-o-phenylene]dioxy]diacetic acid trifluoroacetate] gave an IC50 of 4900 nM.
For `O=C(O)CCc1ccc(C(=O)CNC(=O)CCC2CCNCC2)cc1` [Example 38, 3-[4-[N-[3-(piperidin-4-yl)propionyl]amino]acetyl]phenylpropionic acid trifluoroacetate], the IC50 came to 8000 nM.
The compound `O=C(O)COc1ccc(CCNC(=O)c2cc3c(s2)CCNC3)cc1` [Example 39, 4-[2-[[(4,5,6,7-tetrahydrothieno[3,2-c]pyridin-2-yl)carbonyl]amino]ethyl]phenoxyacetic acid trifluoroacetate] had an IC50 of 260 nM.
Compound `O=C(O)COc1ccc(CCNCc2cc3c(s2)CCNC3)cc1OCC(=O)O` [Example 40, [[4-[2-[N-[(4,5,6,7-tetrahydrothieno[3,2-c]pyridin-2-yl)methyl]amino]ethyl]-o-phenylene]dioxy]diacetic acid trifluoroacetate] gave a 50% inhibitory concentration (IC50) of 4000 nM.
Same read-out and setting: in the case of `CC(=O)N(CCc1ccc(OCC(=O)O)c(OCC(=O)O)c1)Cc1cc2c(s1)CCNC2` [Example 41, [[4-[2-[N-[(4,5,6,7-tetrahydrothieno[3,2-c]pyridin-2-yl)methyl]-N-acetylamino]ethyl]-o-phenylene]dioxy]diacetic acid trifluoroacetate] it was 3300 nM.
The same measure, in the same setting: for `Cc1oc(=O)oc1COC(=O)COc1ccc(C(=O)CNC(=O)c2cc3c(s2)CCNC3)cc1OCC(=O)OCc1oc(=O)oc1C` [Example 42, Di-(5-methyl-2-oxodioxol-4-yl)methyl [[4-[[(4,5,6,7-tetrahydrothieno[3,2-c]pyridin-2-yl)-carbonyl]amino]acetyl]-o-phenylene]dioxy]diacetic acid trifluoroacetate] the value was 340 nM; for `O=C(O)COc1ccc(-c2cnc(CCC3CCNCC3)o2)cc1OCC(=O)O` [Example 43, [[4-[2-[2-(piperidin-4-yl)ethyl]oxazol-5-yl]-o-phenylene]dioxy]diacetic acid 1/2 sulfate], 2800 nM; for `O=C(O)COc1ccc(C(=O)CNC(=O)c2cc3c(s2)CCNC3)nc1` [Example 44, 2-[[4,5,6,7-tetrahydrothieno[3,2-c]pyridin-2-yl)carbonylamino]acetyl]pyridin-5-yloxyacetic acid trifluoroacetate], 720 nM.
Consider `O=C(O)COc1ccc(C(O)CNC(=O)c2cc3c(s2)CCNC3)cc1OCC(=O)O` (stereo not drawn) [Example 45, [[4-[[2-[(4,5,6,7-tetrahydrothieno[3,2-c]pyridin-2-yl)carbonyl]amino]-1-hydroxyethyl]-o-phenylene]dioxy]diacetic acid trifluoroacetate], for which the IC50 was found to be 460 nM.
Still for that read-out and setting: for `O=C(O)COc1ccc(-c2nc(C(=O)c3cc4c(s3)CCNC4)cs2)cc1` [Example 47, 4-[[4-(4,5,6,7-tetrahydrothieno[3,2-c]pyridin-2-yl)carbonyl]thiazol-2-yl]phenoxyacetic acid trifluoroacetate] the value was 6400 nM; for `CCCCOC(=O)COc1ccc(C(=O)CNC(=O)c2cc3c(s2)CCNC3)cc1OCC(=O)OCCCC` [Example 56, Di-n-butyl [[4-[[[(4,5,6,7-tetrahydrothieno [3,2-c]pyridin-2-yl)carbonyl]amino]acetyl]-o-phenylene]dioxy]diacetate trifluoroacetate], 1100 nM.
Still for that read-out and setting: for `O=C(COc1ccc(C(=O)CNC(=O)c2cc3c(s2)CCNC3)cc1OCC(=O)OC1CCCCC1)OC1CCCCC1` [Example 57, Dicyclohexyl [[4-[[[(4,5,6,7-tetrahydrothieno[3,2-c]pyridin-2-yl)carbonyl]amino]acetyl]-o-phenylene]dioxy]diacetate] the value was 3200 nM; for `CN(CC(=O)c1ccc(OCC(=O)O)c(OCC(=O)O)c1)C(=O)[C@H]1CC[C@H](C(=N)N)CC1` [Example 58, [[4-[[[trans-4-amidinocyclohexyl]carbonyl-N-methylamino]acetyl]-o-phenylene]dioxy]diacetic acid trifluoroacetate], 140 nM.

Still in this experiment, the particulars now being: platelet aggregation, ADP 5 μM inducer.
For `O=C(O)COc1ccc(C(=O)CNC(=O)c2cc3c(s2)CCNC3)cc1OCC(=O)O` [Example 29, [[4-[[[(4,5,6,7-tetrahydrothieno[3.2-c]pyridin-2-yl)carbonyl]amino]acetyl]-o-phenylene]dioxy]diacetic acid trifluoroacetate], the IC50 was determined as 230 nM.

The next experiment has as its target T1, human platelet GPIIb/IIIa (Homo sapiens, UniProt P05106+P08514).
T1 construct: platelets collected from healthy adults; from tissue; host or cells: platelets from healthy adults (solubilized with octylglucoside, purified on GRGDSPK-Sepharose)
Put plainly: Pharmacological test 2: inhibition of fibrinogen bonding to platelet GPIIb/IIIa (solid phase assay, biotinylated fibrinogen). It counts as binding. Particulars: fibrinogen bonding to GPIIb/IIIa. As for the experimental part:
Inhibiting effect of the compound according to the present invention on the binding of platelet GPIIb/IIIa and fibrinogen was examined with a solid phase human platelet GPIIb/IIIa bonding assay using biotinylated fibrinogen as a ligand. Human platelet GPIIb/IIIa was purified according to the method described by Pytela, R. et al. (Science, 231, 1559-1561 (1986)). […] The same amount of TBS containing 50 mM octylglucoside and 2 mM PMSF was added to the pellet obtained in order to solubilize the membrane protein at 4° C. for 20 minutes. […] The solubilized protein solution was adsorbed on a GRGDSPK-Sepharose column which had been equilibrated with TBS (Buffer A) containing 50 mM Octylglucoside, 1 mM CaCl2 and MgCl2. After the column was washed with Buffer A, the adsorbed GPIIb/IIIa was eluted with Buffer A containing 2 mM GRGDSP peptide. GRGDSPK-Sepharose was prepared by coupling GRGDSPK peptide and CNBr-activated Sepharose 4B (Pharmacia) according to the instruction of the manufacturer. Then, solid phase human platelet GPIIb/IIIa bonding assay was carried out according to the method of Mori et al. […] Purified human platelet GPIIb/IIIa was adjusted in an amount of 2 μg/ml and adsorbed in an amount of 50 μl on a 96 well-microtiter plate at 4° C. overnight. After washing with TBS containing 1 mM CaCl2 and 1 mM MgCl2, 100 μl of 1% bovine serum albumin was added, blocking was conducted at 4° C. overnight. […] After washing with TBS-Tween 20, 50 μl of peroxidase labelled avidin which had been diluted with TBS to 4,000 times was added. The reaction was continued for 20 minutes. […] A 50 μl portion of a 0.1M citrate buffer containing 0.05% NaN3 was added to stop the reaction, and absorbance at 415 nm was measured. The rate of Bonding inhibition was calculated from the following formula: [formula]
Compound `O=C(O)CCc1ccc(C(=O)CNC(=O)c2cc3c(s2)CCNC3)cc1` [Example 20, 3-[4-[[(4,5,6,7-tetrahydrothieno[3,2-c]pyridin-2-yl)carbonyl]aminoacetyl]phenyl]propionic acid trifluoroacetate] came in with an IC50 of 34000 nM.
